Source: patent US20240254109A1, “SALT CONTAINING PIPERAZINE POLYCYCLIC DERIVATIVE, CRYSTAL FORM THEREOF, PREPARATION METHOD THEREFOR, AND USE THEREOF” (Shanghai Hansoh Biomedical Co., Ltd., priority 2021, published 2024)

How the values were obtained:
[1] = Study on the crystal form of salt of compound (crystallization with counter ion acids); type: physicochemical; conditions: solvent Isopropyl ether, base: acid=1:1.2, 25° C.
Description: To identify which counter ion acids can form crystal form of salt of compound by selecting different counter ion acids according to suitable crystallization methods.
1 mL of the solution was taken into a glass bottle, and different counter ion acids (molar reaction ratio of base: acid=1:1.2) were added, and then the glass bottle was opened at room temperature to volatile solvent. The amorphous or oily was pulped with 200 μL of ethyl acetate.
1) 10 mg of crystal form B of free base was weighed, and 200 μL of methanol solvent was added, and counter ion acid (molar reaction ratio of base: acid=1:1.2) was added respectively at 25° C.
2) 85 mg of crystal form B of free base was weighed, and ethyl acetate was added to produce a clear solution. Different counter ion acids (molar reaction ratio of base: acid=1:1.2) were added respectively at 25° C.

[2] = Pharmacokinetic assay in Balb/c mice (plasma and brain tissue); type: in vivo; conditions: p.o. 5 mg/kg
Description: (III). Pharmacokinetic Assay in Balb/c Mice
Balb/c mice were used as test animals. The pharmacokinetic behavior in mouse body (plasma and brain tissue) of the compounds of Examples of the present invention was studied at an oral administration dose of 5 mg/kg.
Male Balb/c mice (12 mice per group), purchased from Shanghai Jiesijie Laboratory Animal Co., LTD, with Certificate No.: SCXK (Shanghai) 2013-0006 N0.311620400001794.
The test compound was dissolved in 0.5% CMC-Na (1% Tween80) by sonication to formulate a clear solution or homogeneous suspension.
After an overnight fast, male Balb/c mice (12 mice per group) were administered p.o. with the test compound at an administration dose of 5 mg/kg and an administration volume of 10 mL/kg.
0.2 mL of blood was taken from the heart of the mouse before administration and at 1, 2, 4, 8 and 24 hours after administration, and the mice were sacrificed with CO2. The samples were stored in EDTA-K2 tubes, and centrifuged for 6 minutes at 4° C., 6000 rpm to separate the plasma. The plasma samples were stored at −80° C. Whole brain tissue was taken out, weighed, placed in a 2 mL centrifuge tube, and stored at −80° C.
1) 160 μL of acetonitrile was added to 40 μL of the plasma sample for precipitation, and then the mixture was centrifuged for 5 to 20 minutes at 3500×g.
2) 90 μL of acetonitrile containing internal standard (100 ng/mL) was added to 30 μL of the plasma and brain homogenate sample for precipitation, and then the mixture was centrifuged for 8 minutes at 13000 rpm.
3) 70 μL of water was added to 70 μL of the treated supernatant and mixed by vortex for 10 minutes. 20 μL of the supernatant was taken to analyze the concentration of the test compound by LC/MS/MS. LC/MS/MS analytical instrument: AB Sciex API 4000 Qtrap.
• Liquid chromatography condition: Shimadzu LC-20AD pump • Chromatographic column: Agilent ZORBAX XDB-C18 (50×2.1 mm, […]); Mobile phase: Eluent A was 0.1% formic acid in water, and Eluent B was acetonitrile • Flow rate: 0.4 mL/min • Elution time: 0-4.0 minutes, the eluent is as follows:
The main parameters of pharmacokinetics were calculated by WinNonlin 6.1.

Compound	Phenomenon [1]	Peak time tmax ([2]; Brain)	Peak time tmax ([2]; Plasma)
O=C(O)/C=C/C(=O)O [0.25M fumaric acid in ethanol]	Turbid	–	–
O=C(NC1CC(CCN2CCN(c3cccc(Cl)c3Cl)CC2)C1)C1(O)CC1 (stereo not shown) [Example 6, N-(3-(2-(4-(2,3-Dichlorophenyl)piperazin-1-yl)ethyl)cyclobutyl)-1-hydroxycyclopropane-1-carboxamide]	–	1 h	0.5 h
O=C(N[C@H]1C[C@H](CCN2CCN(c3cccc(Cl)c3Cl)CC2)C1)C1(O)CC1 [Example 6A, N-(Trans-3-(2-(4-(2,3-dichlorophenyl)piperazin-1-yl)ethyl)cyclobutyl)-1-hydroxycyclopropane-1-carboxamide]	–	1 h	0.5 h
O=C(N[C@H]1C[C@@H](CCN2CCN(c3cccc(Cl)c3Cl)CC2)C1)C1(O)CC1 [Example 6B, N-(Cis-3-(2-(4-(2,3-dichlorophenyl)piperazin-1-yl)ethyl)cyclobutyl)-1-hydroxycyclopropane-1-carboxamide]	–	1 h	0.5 h
O=C(NC1CC(CCN2CCN(c3cccc(Cl)c3Cl)CC2)C1)c1nccs1 (stereo not shown) [Example 7, N-(3-(2-(4-(2,3-Dichlorophenyl)piperazin-1-yl)ethyl)cyclobutyl)thiazole-2-carboxamide]	–	1 h	0.5 h
O=C(N[C@H]1C[C@H](CCN2CCN(c3cccc(Cl)c3Cl)CC2)C1)c1nccs1 [Example 7A, N-(Trans-3-(2-(4-(2,3-dichlorophenyl)piperazin-1-yl)ethyl)cyclobutyl)thiazole-2-carboxamide]	–	1 h	1 h
O=C(NC1CC(CCN2CCN(c3cccc(Cl)c3Cl)CC2)C1)c1ncco1 (stereo not shown) [Example 12, N-(3-(2-(4-(2,3-Dichlorophenyl)piperazin-1-yl)ethyl)cyclobutyl)oxazole-2-carboxamide]	–	1 h	0.5 h
